This test has as its system HCV 1b-377-neo replicon cells. Description: HCV replicon assay, wild-type cells. The format is cell-based. The conditions noted are these: Hepatitis C virus, against the HCV 1b genotype, read-out: EC50 Range. The protocol:
An HCV Replion assay was utilized in the present disclosure, and was prepared, conducted and validated as described in commonly owned PCT/US2006/022197 and in O'Boyle et al. Antimicrob Agents Chemother. 2005 Apr;49(4):1346-53.
HCV 1b-377-neo replicon cells were used to test the currently described compound series as well as cells resistant to compound A due to a Y2065H mutation in NS5A (described in application PCT/US2006/022197). The compounds tested were determined to have more than 10-fold less inhibitory activity on cells resistant to compound A than wild-type cells indicating a related mechanism of action between the two compound series. Thus, the compounds of the present disclosure can be effective to inhibit the function of the HCV NS5A protein and are understood to be as effective in combinations as previously described in application PCT/US2006/022197 and commonly owned WO/04014852. Further, the compounds of the present disclosure can be effective against the HCV 1b genotype. It should also be understood that the compounds of the present disclosure can inhibit multiple genotypes of HCV. […] In one embodiment compounds of the present disclosure are active against the 1a, 1b, 2a, 2b, 3a, 4a, and 5a genotypes.
For orientation: Replicon systems follow genome replication, usually without infectious particles.

On to `COC(=O)N[C@H](C(=O)Nc1ncc(-c2ccc(-c3ccc(-c4cnc([C@@H]5CCCN5C(=O)[C@@H](NC(=O)OC)C(C)C)[nH]4)cc3)cc2)[nH]1)C(C)C` [Example R33, (S)-2-methoxycarbonylamino-N-(5-(4'-(2-((S)-1-((S)-2-methoxycarbonylamino-3-methylbutanoyl)pyrrolidin-2-yl)-1H-imidazol-5-yl)biphenyl-4-yl)-1H-imidazol-2-yl)-3-methylbutanamide], for which the EC50 (commonly the midpoint of the concentration-response curve) is 1 to 99 nM. Turning to `COCC[C@H](NC(=O)OC)C(=O)N[C@H](c1nc(-c2ccc(-c3ccc(-c4c[nH]c([C@@H]5CCCN5C(=O)[C@H](CCOC)NC(=O)OC)n4)cc3)cc2)c[nH]1)C(C)C` [Example R20, methyl ((1S)-3-methoxy-1-(((2S)-2-(4-(4'-(2-((1S)-1-((N-(methoxycarbonyl)-O-methyl-L-homoseryl)amino)-2-methylpropyl)-1H-imidazol-4-yl)-4-biphenylyl)-1H-imidazol-2-yl)-1-pyrrolidinyl)carbonyl)propyl)carbamate], the EC50 is 0.001 to 0.999 nM.
